Laboratory results from patent publication US20250186403A1 (ARIZONA BOARD OF REGENTS ON BEHALF OF THE UNIVERSITY OF …, priority 2022, published 2025).
Several values for one entry are separate records, joined by “and”; a condition that tells them apart may be missing. Identical values can stand only once. Like-named read-outs stand apart in the source and are kept apart here.

Columns and labels:
[1] = target: T1, recombinant Drosophila Hh protein (C-Hh-Y) (Drosophila melanogaster, UniProt Q02936); assay: Hh cholesterolysis assay; assay type: biochemical; conditions: CMN at up to 200 µM, 22 h
T1 construct: His tag (inferred from 'purified similarly', i.e. Ni-NTA); made in house; host or cells: E. coli LMG194
Procedure: The Tm values were calculated by Thermal shift software. […] The assay was repeated three times. […]
The hedgehog FRET protein C-Hh-Y was expressed and purified similarly, except that the protein was expressed in E. coli strain LMG194, induced with arabinose at 16° C. overnight, and the purified protein was stored in a storage buffer containing 10% glycerol and 4 mM TCEP.
Hh cholesterolysis assay: Cholesterolysis assay was done as per published methodology with modifications. […] With 50 μl reaction volume, a fixed volume of DMSO or CNM with varying concentrations (final 6.25 to 200 µM) were added and incubated at RT for 30 min. Cholesterolysis was induced by adding 1 μl stock solution of cholesterol in ethanol to each tube to attain a final concentration of 200 µM. After incubating at RT for 22 h, 20 μl of the reaction mixture was mixed with an equal volume of reducing SDS-PAGE loading buffer and loaded onto the 12% SDS-PAGE gel, followed by coomassie blue staining. Gel images were taken using the ChemiDoc imaging system (Bio-Rad). Band densities were analyzed using the Image lab software and compared with Student's t-test using the GraphPad Prism software version 9.1.0.

[2] = test system: C. gattii (NIH444); assay: MIC by microdilution method; assay type: cell-based; conditions: Cryptococcus gattii, visual, 48 h, 30° C.
Procedure: (§1) Serial double dilution of the CMN was done in the RPMI-MOPS medium. Freshly grown fungal culture from the SD agar plate was resuspended in sterile water and diluted to get 0.1 OD at 600 nm. […] The plates were incubated at 30° C. for 48 h. Plates were checked for growth by visual observation. For Afu, resazurin was added to 44 µM and incubated for 12 h at 37° C. before noting a change in color from blue to pink by live cells. MIC is defined as the minimum concentration at which there is no growth when observed visually.

[3] = test system: C. amylolentus; assay: MIC by microdilution method; assay type: cell-based
Procedure: as §1

[4] = test system: C. neoformans (Cne-WT); assay: MIC by microdilution method; assay type: cell-based; conditions: Cryptococcus neoformans, 48 h
Procedure: as §1

T1 sequence (Q02936 258-471): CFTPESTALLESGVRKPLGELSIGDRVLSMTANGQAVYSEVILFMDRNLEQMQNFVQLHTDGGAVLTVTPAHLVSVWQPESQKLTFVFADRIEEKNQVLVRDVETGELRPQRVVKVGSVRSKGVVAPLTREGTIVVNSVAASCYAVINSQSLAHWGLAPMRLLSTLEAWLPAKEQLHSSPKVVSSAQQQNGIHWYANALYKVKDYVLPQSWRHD

CNc1ccc2oc(C[C@H]3O[C@@]4(CC[C@H]3C)O[C@H]([C@H](C)C(=O)c3ccc[nH]3)[C@H](C)C[C@H]4C)nc2c1C(=O)O [CMN, calcimycin]
density of spliced product, hedgehog cholesterolysis [1]: did not change the density of spliced product
MIC [2]: 1.5 µg/mL and 3 µM
MIC ([3]; C. amylolentus, visual, 48 h, 30° C.): > 26.1 µg/mL and > 50 µM
growth inhibition ([3]; natural inteinless cryptococcal sp. Cam): no inhibition was observed
MIC [4]: 1.5 µg/mL
MIC ([4]; Cne-WT, visual, 30° C., read-out: MIC): 3 µM
